# Results: patent US20230150980A1, “COLLAGEN 1 TRANSLATION INHIBITORS AND METHODS OF USE THEREOF” (Anima Biotech Inc., priority 2020, published 2023)
# System: collagen 1
# Test: WI-38 collagen 1 inhibition assay (anti-Collagen I immunofluorescence);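 also: minus sign means inactive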
# Type: cell-based
# Conditions: cellular EC50, WI-38 human lung fibroblasts, values are LogEC50 classes
# Procedure: WI-38 cells (ATCC® CCL-75™) were maintained in MEM EAGLE (NEAA) W. GLUTAMIN (Biological Industries, Cat. 06-1040-15-1A) containing 10% fetal bovine serum (FBS) and 1% Penicillin-Streptomycin Solution. To synchronize the cells (cell cycle synchronization) prior to induction of collagen synthesis, the cells were starved using DMEM-low glucose supplemented with 0.25% FBS for two hours and then without FBS for 24 hours. To induce collagen synthesis, the cells were treated with a collagen induction cocktail for the indicated time. Compounds were added with induction.
# Cells in 96-well or 384-well plates were fixed for 20 min in 4% paraformaldehyde (PFA, ENCO, Cat. sc-281692). Following two washes with 1×PBS, cells were treated with hydrogen peroxide (Acros, Cat: 7722-84-1) for 10 minutes and then washed twice with 1×PBS. Cells were then incubated over-night at 4° C. with Anti-Collagen I (Sigma-Aldrich, Cat: C 2456) antibody and washed three times with 1×PBS. Cell were then incubated with a suitable secondary fluorescently-tagged antibody and nuclei stained with DAPI, for 1 hour, and then washed 3 times with 1×PBS.
# Cell images were taken with Operetta (Perkin Elmer, USA), a wide-field fluorescence microscope at 20× magnification. After acquisition, the images were transferred to Columbus software (Perkin-Elmer) for image analysis. In Columbus, cells were identified by their nucleus, using the “Find Nuceli” module and cytoplasm was detected based on the secondary antibody channel. Subsequently, the fluorescent signal was enumerated in the identified cell region. Data was exported to a data analysis and visualization software, Tibco Spotfire, USA.
row,Structure (SMILES),COL1 Efficacy (LogEC50)
1,"Cc1ncnc(N2CCN(Cc3nc4ccc(C(F)(F)F)cc4[nH]3)CC2)c1C [Compound 201, 2-((4-(5,6-dimethylpyrimidin-4-yl)piperazin-1-yl)methyl)-6-(trifluoromethyl)-1H-benzo[d]imidazole]",+++ (+++: <−6)
2,"Cc1ncnc(N2CCN(Cc3cc4ccccc4[nH]3)CC2)c1C [Compound 202, 2-((4-(5,6-dimethylpyrimidin-4-yl)piperazin-1-yl)methyl)-1H-indole]",+++ (+++: <−6)
3,"FC(F)(F)c1ccc2nc(CN3CCN(c4ccncn4)CC3)[nH]c2c1 [Compound 203, 2-((4-(pyrimidin-4-yl)piperazin-1-yl)methyl)-6-(trifluoromethyl)-1H-benzo[d]imidazole]",++ (++: −5 to −6)
4,"FC(F)(F)c1ccc2nc(CN3CCN(c4ccncc4)CC3)[nH]c2c1 [Compound 209, 2-((4-(pyridin-4-yl)piperazin-1-yl)methyl)-6-(trifluoromethyl)-1H-benzo[d]imidazole]",+ (+: >−5)
5,"Cc1ncnc(N2CCN(Cc3cc4cc(Cl)ccc4[nH]3)CC2)c1C [Compound 210, 5-chloro-2-((4-(5,6-dimethylpyrimidin-4-yl)piperazin-1-yl)methyl)-1H-indole]",+++ (+++: <−6)
6,"CCc1cncnc1N1CCN(Cc2nc3ccc(Cl)cc3[nH]2)CC1 [Compound 211, 6-chloro-2-((4-(5-ethylpyrimidin-4-yl)piperazin-1-yl)methyl)-1H-benzo[d]imidazole]",+++ (+++: <−6)
7,"c1ccc2[nH]c(CN3CCN(c4ccncc4)CC3)cc2c1 [Compound 212, 2-((4-(pyridin-4-yl)piperazin-1-yl)methyl)-1H-indole]",+++ (+++: <−6)
8,"c1ccc2[nH]c(CN3CCN(c4ccncn4)CC3)cc2c1 [Compound 213, 2-((4-(pyrimidin-4-yl)piperazin-1-yl)methyl)-1H-indole]",+++ (+++: <−6)
9,"c1ccc(N2CCN(Cc3cc4ccccc4[nH]3)CC2)nc1 [Compound 216, 2-[[4-(2-pyridyl)piperazin-1-yl]methyl]-1H-indole]",+ (+: >−5)
10,"c1cncc(N2CCN(Cc3cc4ccccc4[nH]3)CC2)c1 [Compound 217, 2-[[4-(3-pyridyl)piperazin-1-yl]methyl]-1H-indole]",+ (+: >−5)
11,"c1cncc(CN2CCN(Cc3cc4ccccc4[nH]3)CC2)c1 [Compound 218, 2-[[4-(3-pyridylmethyl)piperazin-1-yl]methyl]-1H-indole]",+ (+: >−5)
12,"Cc1cc(N2CCN(Cc3cc4ccccc4[nH]3)CC2)ccn1 [Compound 221, 2-[[4-(2-methyl-4-pyridyl)piperazin-1-yl]methyl]-1H-indole]",−
13,"Cc1cnccc1N1CCN(Cc2cc3ccccc3[nH]2)CC1 [Compound 222, 2-[[4-(3-methyl-4-pyridyl)piperazin-1-yl]methyl]-1H-indole]",++ (++: −5 to −6)
14,"FC(F)(F)c1cccnc1N1CCN(Cc2cc3ccccc3[nH]2)CC1 [Compound 225, 2-[[4-[3-(trifluoromethyl)-2-pyridyl]piperazin-1-yl]methyl]-1H-indole]",+ (+: >−5)
15,"CN1CCC(N2CCN(Cc3cc4ccccc4[nH]3)CC2)CC1 [Compound 227, 2-[[4-(1-methyl-4-piperidyl)piperazin-1-yl]methyl]-1H-indole]",−
16,"c1ccc2[nH]c(CN3CCN(c4nccs4)CC3)cc2c1 [Compound 229, 2-[4-(1H-indol-2-ylmethyl)piperazin-1-yl]thiazole]",++ (++: −5 to −6)
17,"CCCN1CCN(Cc2cc3ccccc3[nH]2)CC1 [Compound 230, 2-[(4-propylpiperazin-1-yl)methyl]-1H-indole]",+ (+: >−5)
18,"O=C(c1cccnc1)N1CCN(Cc2cc3ccccc3[nH]2)CC1 [Compound 231, [4-(1H-indol-2-ylmethyl)piperazin-1-yl]-(3-pyridyl)methanone]",−
19,"O=C(C1CCCCC1)N1CCN(Cc2cc3ccccc3[nH]2)CC1 [Compound 232, Cyclohexyl-[4-(1H-indol-2-ylmethyl)piperazin-1-yl]methanone]",++ (++: −5 to −6)
20,"c1ccc2[nH]c(CN3CCN(C4CCCC4)CC3)cc2c1 [Compound 233, 2-[(4-cyclopentylpiperazin-1-yl)methyl]-1H-indole]",+ (+: >−5)
21,"c1ccc2[nH]c(CN3CCN(c4nccc5occc45)CC3)cc2c1 [Compound 235, 4-[4-(1H-indol-2-ylmethyl)piperazin-1-yl]furo[3,2-c]pyridine]",+ (+: >−5)
22,"c1ccc2[nH]c(CN3CCN(c4ccnc5ccccc45)CC3)cc2c1 [Compound 236, 4-[4-(1H-indol-2-ylmethyl)piperazin-1-yl]quinolone]",++ (++: −5 to −6)
23,"c1ccc2nc(N3CCN(Cc4cc5ccccc5[nH]4)CC3)ccc2c1 [Compound 237, 2-[4-(1H-indol-2-ylmethyl)piperazin-1-yl]quinolone]",++ (++: −5 to −6)

row,Structure (SMILES),COL1 Efficacy (LogEC50)
1,"Cc1cccnc1N1CCN(Cc2cc3ccccc3[nH]2)CC1 [Compound 238, 2-[[4-(3-methyl-2-pyridyl)piperazin-1-yl]methyl]-1H-indole]",++ (++: −5 to −6)
2,"CC(C)CC(=O)N1CCN(Cc2cc3ccccc3[nH]2)CC1 [Compound 239, 1-[4-(1H-indol-2-ylmethyl)piperazin-1-yl]-3-methyl-butan-1-one]",++ (++: −5 to −6)
3,"c1ccc2[nH]c(CN3CCN(c4ccc5cn[nH]c5c4)CC3)cc2c1 [Compound 286, 6-(4-((1H-indol-2-yl)methyl)piperazin-1-yl)-1H-indazole]",−
4,FC(F)(F)c1ccc2nc(CN3CCN(c4ccccc4)CC3)[nH]c2c1 [compound 200],−
5,Cc1ncnc(N2CCN(Cc3[nH]c4ccc(Cl)cc4c3C)CC2)c1C [compound 204],++ (++: −5 to −6)
6,Cc1cc2c(N3CCN(Cc4nc5ccccc5[nH]4)CC3)ncnc2s1 [compound 205],++ (++: −5 to −6)
7,c1ccc(-c2nc3c(c(N4CCN(Cc5cc6ccccc6[nH]5)CC4)n2)CCC3)cc1 [compound 207],++ (++: −5 to −6)
8,c1ccc2[nH]c(CN3CCN(c4cc(-n5cccn5)ncn4)CC3)nc2c1 [compound 208],++ (++: −5 to −6)
9,CCc1cncnc1N1CCN(Cc2nc3ccc(C(F)(F)F)cc3[nH]2)CC1 [compound 214],+++ (+++: <−6)
10,"Brc1ccc2[nH]c(CN3CCN(c4ccncc4)CC3)cc2c1 [compound 215, 5-bromo-2-[[4-(4-pyridyl)piperazin-1-yl]methyl]-1H-indole]",−
11,"c1ccc(-c2ccc3[nH]c(CN4CCN(c5ccncc5)CC4)cc3c2)cc1 [compound 219, 5-phenyl-2-[[4-(4-pyridyl)piperazin-1-yl]methyl]-1H-indole]",−
12,"c1cncc(-c2ccc3[nH]c(CN4CCN(c5ccncc5)CC4)cc3c2)c1 [compound 220, 5-(3-pyridyl)-2-[[4-(4-pyridyl)piperazin-1-yl]methyl]-1H-indole]",−
13,"COc1ccc2[nH]c(CN3CCN(c4ccncc4)CC3)cc2c1 [compound 223, 5-methoxy-2-[[4-(4-pyridyl)piperazin-1-yl]methyl]-1H-indole]",−
14,"Brc1ccc2cc(CN3CCN(c4ccncc4)CC3)[nH]c2c1 [compound 224, 6-bromo-2-[[4-(4-pyridyl)piperazin-1-yl]methyl]-1H-indole]",+ (+: >−5)
15,"FC(F)(F)c1ccc2[nH]c(CN3CCN(c4ccncc4)CC3)cc2c1 [compound 226, 2-[[4-(4-pyridyl)piperazin-1-yl]methyl]-5-(trifluoromethyl)-1H-indole]",+ (+: >−5)
16,"COc1ccc2cc(CN3CCN(c4ccncc4)CC3)[nH]c2c1 [compound 228, 6-methoxy-2-[[4-(4-pyridyl)piperazin-1-yl]methyl]-1H-indole]",+ (+: >−5)
17,c1ccc2[nH]c(CN3CCN(c4nccc5ccccc45)CC3)cc2c1 [compound 234],+ (+: >−5)
18,"Clc1ccc2cc(CN3CCN(c4ccncc4)CC3)[nH]c2c1 [compound 240, 6-chloro-2-[[4-(4-pyridyl)piperazin-1-yl]methyl]-1H-indole]",+ (+: >−5)
19,"c1ccc(N2CCN(Cc3cc4ccccc4[nH]3)CC2)cc1 [compound 241, 2-[(4-phenylpiperazin-1-yl)methyl]-1H-indole]",++ (++: −5 to −6)
20,"c1ccc2[nH]c(CN3CCN(c4ccnc5[nH]ccc45)CC3)cc2c1 [compound 242, 4-[4-(1H-indol-2-ylmethyl)piperazin-1-yl]-1H-pyrrolo[2,3-b]pyridine]",+ (+: >−5)
21,"Clc1cccc2[nH]c(CN3CCN(c4ccncc4)CC3)cc12 [compound 243, 4-chloro-2-[[4-(4-pyridyl)piperazin-1-yl]methyl]-1H-indole]",−
22,"O=C(c1cc2ccccc2[nH]1)N1CCN(c2ccncc2)CC1 [compound 244, (1H-indol-2-yl)(4-(pyridin-4-yl)piperazin-1-yl)methanone]",+ (+: >−5)
